The conditions of data set [1]: solvent H2O; stirred strongly 30 seconds in each 5 minutes, observed within 30 minutes.
Excerpt: Each compound prepared above was weighted and added to solvents with different volume capacity.
The nature of data set [2]: SD rats drug absorption test. Here is the method: The intravenous blood was collected from venous plexus behind eyeballs of rats at different time before and after administration, and the blood plasma is prepared by separated.
Blood samples are collected from an orbit at different time after the administration.

In the case of `CCCCc1nc(Cl)c(C(=O)OCOC(=O)OC(C)C)n1Cc1ccc(-c2ccccc2-c2nnn[nH]2)cc1` [Compound 1, 2-butyl-4-chloro-1-[2′-(1H-tetrazol-5-yl)1,1′-biphenyl-methyl]imidazole-5-carboxylic acid, 1-[(isopropoxycarbonyl)oxy]methyl ester], the “Solubility (in H2O)” value in data set [1] is given as “Slightly soluble (1 g of compound can be dissolved in 100 ml˜1000 ml solvent)”. This compound registered a Bioavailability in data set [2] (intragastric infusion versus EXP3174 intravenous 7.9 mg/kg, based on plasma EXP3174, 7.9 mg/kg) of 4.11%. In data set [2] (intragastric infusion, same dosage as EXP3174 (7.9 mg/kg), active metabolite EXP3174 measured in blood plasma by LC-MS/MS), the time to peak (Tmax) amounted to 2 h.

In general, Tmax refers to the time at which the peak concentration occurs.

The values are drawn from patent publication US7943648B2, “Salts of imidazole-5-carboxylic acid derivatives, a method for preparing same and pharmaceutical compositions comprising same” (Shanghai Allist Pharmaceutical Inc., priority 2006, dated 2011).
